Experiments:
SW620 cells = assay: Cell viability assay, SW620; format: cell-based, human; conditions: Homo sapiens, SW-620, SW620, 72 hours, Cell Counting Kit-8, read-out: G12V IC50
Method: (§1) The purpose of this cellular assay was to determine the effects of test compounds on the proliferation of human cancer cell lines NCI-H358 (ATCC-CRL5807) cells, AGS (ATCC-CRL-1739) cells, SW620 (ATCC-CCL-227) over a 3-day treatment period by quantifying the amount of NADPH present at endpoint using Cell Counting Kit-8. Cells were seeded at 5,000 cells/well (NCI-H358), 2,000 cells/well (AGS) 2,000 cells/well (SW620) in 96-well assay plates (Corning-3699) and incubated overnight. On the day of the assay, diluted compounds were then added in a final concentration of 0.5% DMSO. After 72 hours incubation, a tenth of the volume of cell counting kit 8(Dnjindo-CK04) was added into each well. Read the signal (OD450 minus OD650) using EnVision after 2 hours incubation. IC50 was determined by fitting a 4-parameter sigmoidal concentration response model.

[1] = molecular target: KRAS G12V binding to BRAF (Homo sapiens (Human), UniProt P01116+P62937, G12V); assay: KRAS-BRAF with CYPA (50 nM) interaction assay (TR-FRET), G12V; conditions: GMPPNP loaded 6His-KRAS, GST-BRAF RBD
Sequence of KRAS G12V binding to BRAF (P01116-2 other isoform, or with tags, fused parts or gaps G12V): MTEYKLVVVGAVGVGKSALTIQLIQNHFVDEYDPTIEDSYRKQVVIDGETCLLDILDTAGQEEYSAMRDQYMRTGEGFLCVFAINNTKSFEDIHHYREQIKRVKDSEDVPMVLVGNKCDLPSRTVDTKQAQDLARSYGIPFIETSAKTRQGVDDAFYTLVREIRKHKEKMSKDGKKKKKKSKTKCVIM
Sequence of KRAS G12V binding to BRAF (P62937 whole entry): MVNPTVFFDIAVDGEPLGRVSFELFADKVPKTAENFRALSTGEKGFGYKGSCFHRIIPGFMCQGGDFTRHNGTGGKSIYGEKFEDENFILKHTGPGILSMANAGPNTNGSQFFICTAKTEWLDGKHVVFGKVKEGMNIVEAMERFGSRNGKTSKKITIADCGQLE
Method: (§2) In this example, TR-FRET was also used to measure the compound or compound-CYPA dependent disruption of the KRAS G12C-BRAF complex. This protocol was also used to measure disruption of KRAS G12D or KRAS G12V binding to BRAF by a compound of the invention, respectively. In assay buffer containing 25 mM HEPES PH=7.4 (4-(2-hydroxyethyl)-1-piperazineethanesulfonic acid, Thermo, 15630080), 0.002% Tween20, 0.1% BSA, 100 mM NaCl, 5 mM MgCl2, 10 μM GMPPNP (Guanosine 5'-[β,γ-imido]triphosphate trisodium salt hydrate, Sigma, G0635), tagless CYPA, GMPPNP loaded 6His-KRAS proteins, and GST-BRAF^RBD were mixed in a well of a 384-well assay plate at final concentrations of 50 nM, 6.25 nM and 1 nM, respectively. Compound was present in plate wells as a 16-point 3-fold dilution series starting at a final concentration of 10 μM and incubated for 3 hours. A mixture of MAb Anti-6His-XL665 (Cisbio, 61HISXLB) and Mab anti-GST-TB cryptate (Cisbio, 61GSTTLB) was then added at a final concentration of 6.67 nM and 0.21 nM, respectively, and the plate was incubated for an additional 1.5 hours. TR-FRET signal was read on a […] microplate reader (Ex320 nm, Em 665/615 nm). Compounds that facilitate disruption of the KRAS-BRAF complex were identified as those eliciting a decrease in the TR-FRET ratio relative to DMSO control wells.

KRAS G12V in SW620 = assay: pERK inhibition assay, SW620; format: cell-based, human; conditions: Homo sapiens, SW-620, SW620 cells, 4 hours incubation
Method: (§3) This assay is to measure the ability of test compounds in inhibiting the phosphorylation of ERK, the downstream signaling of KRAS G12C in NCI-H358 cells, KRAS G12D in AGS cells, and KRAS G12V in SW620. NCI-H358 (ATCC-CRL5807) cells, AGS (ATCC-CRL-1739) cells, SW620 (ATCC-CCL-227) cells were all grown and maintained using RPMI-1640 medium (Thermo Fisher Scientific) with 10% fetal bovine serum and 1% penicillin/streptomycin. On the day prior to compound addition, cells were plated in tissue culture-treated 96 well plates (Corning-3699) at a density of 30,000 cell/well, 20,000 cell/well, 30,000 cell/well for NCI-H358, AGS and SW620 respectively, and allowed for attachment overnight. Diluted compounds were then added in a final concentration of 0.5% DMSO. After 4 hours of incubation, the medium was removed, 100 μL of 4% formaldehyde was added, and the assay plates were incubated at room temperature for 20 minutes. The plates were then washed once with phosphate buffered saline (PBS), and permeabilized with 100 μL of chilled methanol for 10 minutes. Non-specific antibody binding to the plates was blocked using 50 μL 1×BSA blocking buffer (Thermo-37520, 10-fold dilution by Phosphate-Buffered Saline Tween (PBST) for at least 1 hour at room temperature. The amount of phosphor-ERK was determined using an antibody specific for phosphorylated form of ERK. Primary antibody (pERK, CST-4370, Cell Signaling Technology) was diluted 1:300 in blocking buffer, with 50 μL aliquoted to each well, and incubated overnight at 4° C. Cells were washed five times for 5 minutes with PBST. Secondary antibody (HRP-linked anti-rabbit IgG, CST-7074, Cell Signaling Technology) was diluted 1:1000 in blocking buffer, and 50 μL was added to each well and incubated 1-2 hours at room temperature. Cells were washed 5 times for 5 minutes with PBST, 100 μL TMB ELISA substrate (abcam-ab171523) were added and gently shake for 20 minutes. 50 μL stop solution (abcam-ab171529) were added, and then read the signal (OD450) by EnVision. IC50 was determined by fitting a 4-parameter sigmoidal concentration response model.

NCI-H358 cells = assay: Cell viability assay, NCI-H358; format: cell-based, human; conditions: Homo sapiens, NCI-H358, 72 hours, Cell Counting Kit-8, read-out: G12C IC50
Method: as §1

AGS cells = assay: Cell viability assay, AGS; format: cell-based, human; conditions: Homo sapiens, 72 hours, Cell Counting Kit-8, read-out: G12D IC50
Method: as §1

KRAS G12D in AGS cells = assay: pERK inhibition assay, AGS; format: cell-based, human; conditions: Homo sapiens, 4 hours incubation
Method: as §3

[2] = molecular target: KRAS G12D binding to BRAF (Homo sapiens (Human), UniProt P01116+P62937, G12D); assay: KRAS-BRAF with CYPA (50 nM) interaction assay (TR-FRET), G12D; conditions: GMPPNP loaded 6His-KRAS, GST-BRAF RBD
Sequence of KRAS G12D binding to BRAF (P01116-2 other isoform, or with tags, fused parts or gaps G12D): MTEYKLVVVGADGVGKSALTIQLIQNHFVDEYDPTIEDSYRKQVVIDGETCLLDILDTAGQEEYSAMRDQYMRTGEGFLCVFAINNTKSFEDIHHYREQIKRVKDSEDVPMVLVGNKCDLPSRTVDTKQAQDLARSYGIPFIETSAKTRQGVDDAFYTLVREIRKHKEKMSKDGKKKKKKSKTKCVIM
Sequence of KRAS G12D binding to BRAF (P62937 whole entry): as the sequence (P62937 whole entry) above
Method: as §2

KRAS G12C-BRAF complex = KRAS G12C-BRAF complex (Homo sapiens (Human), UniProt P01116+P62937, G12C); assay: KRAS-BRAF with CYPA (50 nM) interaction assay (TR-FRET), G12C; format: binding; conditions: GMPPNP loaded 6His-KRAS, GST-BRAF RBD
Sequence of KRAS G12C-BRAF complex (P01116-2 other isoform, or with tags, fused parts or gaps G12C): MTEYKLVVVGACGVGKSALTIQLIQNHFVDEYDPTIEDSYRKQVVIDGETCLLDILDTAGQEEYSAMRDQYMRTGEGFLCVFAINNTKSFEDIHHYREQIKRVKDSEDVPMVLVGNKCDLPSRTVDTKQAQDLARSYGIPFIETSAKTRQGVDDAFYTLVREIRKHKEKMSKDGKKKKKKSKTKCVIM
Sequence of KRAS G12C-BRAF complex (P62937 whole entry): as the sequence (P62937 whole entry) above
Method: as §2

[3] = test system: KRAS G12C in NCI-H358 cells; assay: pERK inhibition assay, NCI-H358; format: cell-based, human; conditions: Homo sapiens, 4 hours incubation
Method: as §3

Row | Structure (SMILES) | IC50 (SW620 cells) [nM] | IC50 [1] [nM] | IC50 (KRAS G12V in SW620) [nM] | IC50 (NCI-H358 cells) [nM] | IC50 (AGS cells) [nM] | IC50 (KRAS G12D in AGS cells) [nM] | IC50 [2] [nM] | IC50 (KRAS G12C-BRAF complex) [nM] | IC50 [3] [nM]
1 | CCn1c(-c2cc(N3CCN(CC(F)(F)F)CC3)cnc2[C@H](C)OC)c2c3cc(ccc31)-c1csc(n1)C[C@H](NC(=O)[C@H](C(C)C)N(C)C(=O)[C@H]1CCN(C(=O)[C@H](F)Cl)C1)C(=O)N1CCC[C@H](N1)C(=O)OCC(C)(C)C2 (atropisomer, axis not shown; (M)) [Example 26, (3S)-1-[(2R)-2-chloro-2-fluoro-acetyl]-N-[(1S)-1-[[(7S,13S)-21-ethyl-(20M)-20-[2-[(1S)-1-methoxyethyl]-5-[4-(2,2,2-trifluoroethyl)piperazin-1-yl]-3-pyridyl]-17,17-dimethyl-8,14-dioxo-15-oxa-4-thia-9,21,27,28-tetrazapentacyclo[17.5.2.12,5.19,13.022,26]octacosa-1(25),2,5(28),19,22(26),23-hexaen-7-yl]carbamoyl]-2-methyl-propyl]-N-methyl-pyrrolidine-3-carboxamide] | 45 | 200 | 13 | < 0.6 | 140 | 35 | 2720 | 36 | 1
2 | CO[C@@H](C)c1ncc(N2CCN(C)CC2)cc1-c1c2c3cc(ccc3n1CC(F)(F)F)-c1csc(n1)C[C@H](NC(=O)[C@H](C(C)C)N(C)C(=O)C1(F)CCN(C(=O)[C@H](F)Cl)CC1)C(=O)N1CCC[C@H](N1)C(=O)OCC(C)(C)C2 (atropisomer, axis not shown; (M)) [Example 20, 1-[(2R)-2-chloro-2-fluoro-acetyl]-4-fluoro-N-[(1S)-1-[[(7S,13S)-(20M)-20-[2-[(1S)-1-methoxyethyl]-5-(4-methylpiperazin-1-yl)-3-pyridyl]-17,17-dimethyl-8,14-dioxo-21-(2,2,2-trifluoroethyl)-15-oxa-4-thia-9,21,27,28-tetrazapentacyclo[17.5.2.12,5.19,13.022,26]octacosa-1(25),2,5(28),19,22(26),23-hexaen-7-yl]carbamoyl]-2-methyl-propyl]-N-methyl-piperidine-4-carboxamide] | 5 | 1170 | 3 | 0.2 | 18 | 11 | 415 | 11 | 1
3 | CCn1c(-c2cccnc2[C@H](C)OC)c2c3cc(ccc31)-c1cc(O)cc(c1)C[C@H](NC(=O)[C@H](C(C)C)N(C)C(=O)[C@H]1CCN(C(=O)/C=C/n3cncn3)C1)C(=O)N1CCC[C@H](N1)C(=O)OCC(C)(C)C2 (atropisomer, axis not shown; (M)) [Example 9, (3S)-N-[(1S)-1-[[(8S,14S)-22-ethyl-4-hydroxy-(21M)-21-[2-[(1S)-1-methoxyethyl]-3-pyridyl]-18,18-dimethyl-9,15-dioxo-16-oxa-10,22,28-triazapentacyclo[18.5.2.12,6.110,14.023,27]nonacosa-1(26),2,4,6(29),20,23(27),24-heptaen-8-yl]carbamoyl]-2-methyl-propyl]-N-methyl-1-[(E)-3-(1,2,4-triazol-1-yl)prop-2-enoyl]pyrrolidine-3-carboxamide] | 853 | 103 | 742 | 29 | – | – | 1930 | 38 | 229
4 | CCn1c(-c2cccnc2[C@H](C)OC)c2c3cc(ccc31)-c1cc(O)cc(c1)C[C@H](NC(=O)[C@H](C(C)C)N(C)C(=O)C1CC(C=O)C1)C(=O)N1CCC[C@H](N1)C(=O)OCC(C)(C)C2 (stereo partly drawn) [Example 3, N-[(1S)-1-[[(8S,14S)-22-ethyl-4-hydroxy-(21M)-21-[2-[(1S)-1-methoxyethyl]-3-pyridyl]-18,18-dimethyl-9,15-dioxo-16-oxa-10,22,28-triazapentacyclo[18.5.2.12,6.110,14.023,27]nonacosa-1(26),2,4,6(29),20,23(27),24-heptaen-8-yl]carbamoyl]-2-methyl-propyl]-3-formyl-N-methyl-cyclobutanecarboxamide] | 684 | 110 | 245 | 41 | 1300 | 683 | 1030 | 1 | 9

From patent publication US20250163072A1, “MACROCYCLIC COMPOUNDS FOR THE TREATMENT OF CANCER” (Hoffmann-La Roche Inc., priority 2021, published 2025)
